Source: publication PMC5218480 (PLoS ONE, 2017)

Test system: MV-4-11 cells
Assay: Gene expression microarray analysis (Affymetrix PrimeView) and GSEA
Assay type: cell-based, human
Set-up: RFU PODN (11730768_x_at) / Fold change /veh PODN (11730768_x_at) / RFU LINC00158 (11744669_a_at) / Fold change /veh LINC00158 (11744669_a_at) / RFU DUSP10 (11751237_a_at) / Fold change /veh DUSP10 (11751237_a_at) / RFU ID3 (11757404_x_at) / Fold change /veh ID3 (11757404_x_at) / RFU PLEKHG5 (11737974_s_at) / Fold change /veh PLEKHG5 (11737974_s_at) / RFU LRRC4B (11730491_at) / Fold change /veh LRRC4B (11730491_at) / RFU GIMAP4 (11747438_a_at) / Fold change /veh GIMAP4 (11747438_a_at) / RFU KRT8 (11758183_x_at) / Fold change /veh KRT8 (11758183_x_at) / RFU CNN1 (11734310_a_at) / Fold change /veh CNN1 (11734310_a_at) / RFU VPS37D (11726825_at) / Fold change /veh VPS37D (11726825_at) / RFU C10orf10 (11716522_x_at) / Fold change /veh C10orf10 (11716522_x_at) / RFU KIR2DL2 /// KIR2DL4 /// KIR2DL5A /// KIR2DL5B /// KIR2DS1 /// KIR2DS2 /// KIR2DS3 /// KIR2DS4 /// KIR3DL3 /// KIR3DL3 /// KIR3DS1 (11738374_at) / Fold change /veh KIR2DL2 /// KIR2DL4 /// KIR2DL5A /// KIR2DL5B /// KIR2DS1 /// KIR2DS2 /// KIR2DS3 /// KIR2DS4 /// KIR3DL3 /// KIR3DL3 /// KIR3DS1 (11738374_at) / RFU C1QL1 (11718748_at) / Fold change /veh C1QL1 (11718748_at) / RFU TMPRSS4 (11747572_a_at) / Fold change /veh TMPRSS4 (11747572_a_at) / RFU HAMP (11756126_x_at) / Fold change /veh HAMP (11756126_x_at) / RFU RNFT2 (11725882_a_at) / Fold change /veh RNFT2 (11725882_a_at) / RFU NR4A2 (11747474_a_at) / Fold change /veh NR4A2 (11747474_a_at) / RFU ABCC12 (11746883_a_at) / Fold change /veh ABCC12 (11746883_a_at) / RFU TMEM136 (11760407_x_at) / Fold change /veh TMEM136 (11760407_x_at) / RFU CLDN22 /// WWC2 (11732394_at) / Fold change /veh CLDN22 /// WWC2 (11732394_at) / RFU HLA-DPB1 (11760878_x_at) / Fold change /veh HLA-DPB1 (11760878_x_at) / RFU SPINT1 (11716480_a_at) / Fold change /veh SPINT1 (11716480_a_at) / RFU GAP43 (11754022_s_at) / Fold change /veh GAP43 (11754022_s_at) / RFU A4GNT (11735810_at) / Fold change /veh A4GNT (11735810_at) / RFU PRB3 (11715151_x_at) / Fold change /veh PRB3 (11715151_x_at) / RFU TUBB4B (11761932_at) / Fold change /veh TUBB4B (11761932_at) / RFU CAPN14 (11732068_a_at) / Fold change /veh CAPN14 (11732068_a_at) / RFU TMCC2 (11721928_a_at) / Fold change /veh TMCC2 (11721928_a_at) / RFU IRGQ (11745062_a_at) / Fold change /veh IRGQ (11745062_a_at) / RFU FAM174B (11720279_a_at) / Fold change /veh FAM174B (11720279_a_at) / RFU TMPRSS4 (11748680_a_at) / Fold change /veh TMPRSS4 (11748680_a_at) / RFU FAM212B (11763350_a_at) / Fold change /veh FAM212B (11763350_a_at) / RFU PLEKHG5 (11743358_a_at) / Fold change /veh PLEKHG5 (11743358_a_at) / RFU ZSCAN30 (11745921_a_at) / Fold change /veh ZSCAN30 (11745921_a_at) / RFU CMKLR1 (11741424_a_at) / Fold change /veh CMKLR1 (11741424_a_at) / RFU LOC101060620 /// MAPK8IP1 (11723275_at) / Fold change /veh LOC101060620 /// MAPK8IP1 (11723275_at) / RFU SPTSSB (11747773_x_at) / Fold change /veh SPTSSB (11747773_x_at) / RFU PRSS12 (11739890_at) / Fold change /veh PRSS12 (11739890_at) / RFU BIN1 (11741810_x_at) / Fold change /veh BIN1 (11741810_x_at) / RFU WNT11 (11732464_a_at) / Fold change /veh WNT11 (11732464_a_at) / RFU C10orf10 (11716521_a_at) / Fold change /veh C10orf10 (11716521_a_at) / RFU C5orf56 (11738089_at) / Fold change /veh C5orf56 (11738089_at) / RFU CYB561 (11721691_x_at) / Fold change /veh CYB561 (11721691_x_at) / RFU ANKRD19P (11752326_a_at) / Fold change /veh ANKRD19P (11752326_a_at) / RFU OR2T12 /// OR2T33 /// OR2T8 (11738714_s_at) / Fold change /veh OR2T12 /// OR2T33 /// OR2T8 (11738714_s_at) / RFU VCAN (11748164_a_at) / Fold change /veh VCAN (11748164_a_at) / RFU JSRP1 (11732532_at) / Fold change /veh JSRP1 (11732532_at) / RFU KRTAP10-11 (11738290_x_at) / Fold change /veh KRTAP10-11 (11738290_x_at) / RFU MYO3A (11730013_a_at) / Fold change /veh MYO3A (11730013_a_at) / RFU EBF3 (11725865_a_at) / Fold change /veh EBF3 (11725865_a_at) / RFU CAMK2N1 (11719241_x_at) / Fold change /veh CAMK2N1 (11719241_x_at) / RFU C5orf56 (11738088_a_at) / Fold change /veh C5orf56 (11738088_a_at) / RFU OLFML3 (11715873_a_at) / Fold change /veh OLFML3 (11715873_a_at) / RFU LOC100653217 /// NTM (11731650_a_at) / Fold change /veh LOC100653217 /// NTM (11731650_a_at) / RFU MAPK11 (11762145_a_at) / Fold change /veh MAPK11 (11762145_a_at) / RFU FIZ1 (11724087_x_at) / Fold change /veh FIZ1 (11724087_x_at) / RFU OASL (11726364_x_at) / Fold change /veh OASL (11726364_x_at) / RFU SOX15 (11748057_x_at) / Fold change /veh SOX15 (11748057_x_at) / RFU CD79A (11719716_a_at) / Fold change /veh CD79A (11719716_a_at) / RFU HIST1H1D (11736915_at) / Fold change /veh HIST1H1D (11736915_at) / RFU CASKIN2 (11723855_a_at) / Fold change /veh CASKIN2 (11723855_a_at) / RFU LOC730098 (11760151_x_at) / Fold change /veh LOC730098 (11760151_x_at) / RFU OR4N2 (11742367_at) / Fold change /veh OR4N2 (11742367_at) / RFU PRRT2 (11749266_a_at) / Fold change /veh PRRT2 (11749266_a_at) / RFU SNX32 (11753110_a_at) / Fold change /veh SNX32 (11753110_a_at) / RFU CDHR5 (11726645_a_at) / Fold change /veh CDHR5 (11726645_a_at) / RFU RCAN1 (11760418_a_at) / Fold change /veh RCAN1 (11760418_a_at) / RFU FAM167A (11723789_a_at) / Fold change /veh FAM167A (11723789_a_at) / RFU FAM26E (11764081_at) / Fold change /veh FAM26E (11764081_at) / RFU ISYNA1 (11749810_s_at) / Fold change /veh ISYNA1 (11749810_s_at) / RFU ACY1 (11761880_at) / Fold change /veh ACY1 (11761880_at) / RFU 11764098_at / Fold change /veh 11764098_at / RFU SAMD14 (11745864_x_at) / Fold change /veh SAMD14 (11745864_x_at) / RFU NPB (11741838_a_at) / Fold change /veh NPB (11741838_a_at) / RFU TMPRSS6 (11731388_a_at) / Fold change /veh TMPRSS6 (11731388_a_at) / RFU KRTAP10-2 (11738614_at) / Fold change /veh KRTAP10-2 (11738614_at) / RFU ARHGAP8 /// PRR5-ARHGAP8 (11727945_x_at) / Fold change /veh ARHGAP8 /// PRR5-ARHGAP8 (11727945_x_at) / RFU KRTAP5-7 /// NADSYN1 (11734609_at) / Fold change /veh KRTAP5-7 /// NADSYN1 (11734609_at) / RFU RASL12 (11751679_a_at) / Fold change /veh RASL12 (11751679_a_at) / RFU CDKN2B (11736163_a_at) / Fold change /veh CDKN2B (11736163_a_at) / RFU PRF1 (11729649_at) / Fold change /veh PRF1 (11729649_at) / RFU, ZNF638 /// ZNF638-IT1 / Fold change vs veh, ZNF638 /// ZNF638-IT1 / RFU, PANK3 / Fold change vs veh, PANK3 / RFU, SH3YL1 / Fold change vs veh, SH3YL1 / RFU, ZEB2 / Fold change vs veh, ZEB2 / RFU, NRIP1 / Fold change vs veh, NRIP1 / RFU, PTTG1IP / Fold change vs veh, PTTG1IP / RFU, CAPN2 / Fold change vs veh, CAPN2 / RFU, MED14 / Fold change vs veh, MED14 / RFU, SNORA58 / Fold change vs veh, SNORA58 / RFU, C1orf63 / Fold change vs veh, C1orf63 / RFU, LRRFIP1 / Fold change vs veh, LRRFIP1 / RFU, NDUFAF7 / Fold change vs veh, NDUFAF7 / RFU, SLC12A2 / Fold change vs veh, SLC12A2 / RFU, IBTK / Fold change vs veh, IBTK / RFU, ESF1 / Fold change vs veh, ESF1 / Fold change vs veh, TMEM50B / RFU, TAOK1 / Fold change vs veh, TAOK1 / RFU, ACBD3 / Fold change vs veh, ACBD3 / RFU, TMA16 / Fold change vs veh, TMA16 / RFU, RWDD3 / Fold change vs veh, RWDD3 / RFU, BCAT1 / Fold change vs veh, BCAT1 / RFU, EDEM3 / Fold change vs veh, EDEM3 / RFU, TMEM33 / Fold change vs veh, TMEM33 / RFU, WDR75 / Fold change vs veh, WDR75 / RFU, AHCTF1 / Fold change vs veh, AHCTF1 / RFU, TFRC / Fold change vs veh, TFRC / RFU, ZDHHC17 / Fold change vs veh, ZDHHC17 / RFU, NOM1 / Fold change vs veh, NOM1 / RFU, ARL8B / Fold change vs veh, ARL8B / RFU, ZBTB11 / Fold change vs veh, ZBTB11 / RFU, TAMM41 / Fold change vs veh, TAMM41 / RFU, KIAA1704 /// LOC100996395 / Fold change vs veh, KIAA1704 /// LOC100996395 / RFU, ING1 / Fold change vs veh, ING1 / RFU, TRMT61B / Fold change vs veh, TRMT61B / RFU, FUBP3 / Fold change vs veh, FUBP3 / RFU, TP53 / Fold change vs veh, TP53 / RFU, TNKS2 / Fold change vs veh, TNKS2 / RFU, ZFP14 / Fold change vs veh, ZFP14 / RFU, ACTR2 / Fold change vs veh, ACTR2 / RFU, PPP3R1 / Fold change vs veh, PPP3R1 / RFU, PIK3R1 / Fold change vs veh, PIK3R1 / RFU, HNRNPA1 / Fold change vs veh, HNRNPA1 / RFU, RNF170 / Fold change vs veh, RNF170 / RFU, ZNF28 / Fold change vs veh, ZNF28 / RFU, RNGTT / Fold change vs veh, RNGTT / RFU, OGT / Fold change vs veh, OGT / RFU, BRD1 / Fold change vs veh, BRD1 / RFU, MARS / Fold change vs veh, MARS / RFU, ZNF655 / Fold change vs veh, ZNF655 / RFU, FAHD1 / Fold change vs veh, FAHD1 / RFU, BDP1 / Fold change vs veh, BDP1 / RFU, LRRCC1 / Fold change vs veh, LRRCC1 / RFU, ARID1A / Fold change vs veh, ARID1A / RFU, ZNF146 / Fold change vs veh, ZNF146 / RFU, ZNF330 / Fold change vs veh, ZNF330 / RFU, GPN3 / Fold change vs veh, GPN3 / RFU, C9orf123 / Fold change vs veh, C9orf123 / RFU, N4BP2L2 / Fold change vs veh, N4BP2L2 / RFU, ARFIP1 / Fold change vs veh, ARFIP1 / RFU, FAM179B / Fold change vs veh, FAM179B / RFU, BCL10 / Fold change vs veh, BCL10 / RFU, UHRF1BP1L / Fold change vs veh, UHRF1BP1L / RFU, BET1 / Fold change vs veh, BET1 / RFU, CNOT2 / Fold change vs veh, CNOT2 / RFU, ZNF268 / Fold change vs veh, ZNF268 / Fold change vs veh, ZNF507 / RFU, DGCR2 / Fold change vs veh, DGCR2 / RFU, WDSUB1 / Fold change vs veh, WDSUB1 / Fold change vs veh, HSP90B1 /// MIR3652 / RFU, ADSS / Fold change vs veh, ADSS / RFU, GK / Fold change vs veh, GK / RFU, ZNF148 / Fold change vs veh, ZNF148 / RFU, TAF9 / Fold change vs veh, TAF9 / RFU, SLC1A5 / Fold change vs veh, SLC1A5 / RFU, SLMO2 / Fold change vs veh, SLMO2 / RFU, ABCC4 / Fold change vs veh, ABCC4 / RFU, LOC101060439 /// RAP1B / Fold change vs veh, LOC101060439 /// RAP1B / RFU, RFX7 / Fold change vs veh, RFX7 / RFU, GTPBP10 / Fold change vs veh, GTPBP10 / RFU, CNEP1R1 / Fold change vs veh, CNEP1R1 / RFU, BIVM-ERCC5 /// ERCC5 / Fold change vs veh, BIVM-ERCC5 /// ERCC5 / RFU, ILF3 / Fold change vs veh, ILF3 / RFU 11762660_at / Fold change /veh 11762660_at / RFU VCAN (11757783_s_at) / Fold change /veh VCAN (11757783_s_at) / RFU DDX43 (11728927_at) / Fold change /veh DDX43 (11728927_at) / RFU KRT8 (11758188_x_at) / Fold change /veh KRT8 (11758188_x_at) / RFU NKD1 (11759106_at) / Fold change /veh NKD1 (11759106_at) / RFU SRD5A1 (11742802_a_at) / Fold change /veh SRD5A1 (11742802_a_at) / RFU TPSAB1 /// TPSB2 (11721975_s_at) / Fold change /veh TPSAB1 /// TPSB2 (11721975_s_at) / RFU GSTM3 (11746129_a_at) / Fold change /veh GSTM3 (11746129_a_at) / RFU IL23R (11737362_x_at) / Fold change /veh IL23R (11737362_x_at) / RFU TMEM51 (11727254_a_at) / Fold change /veh TMEM51 (11727254_a_at) / RFU PIWIL2 (11732686_x_at) / Fold change /veh PIWIL2 (11732686_x_at) / RFU ORM1 (11744905_x_at) / Fold change /veh ORM1 (11744905_x_at) / RFU CCDC152 (11743942_at) / Fold change /veh CCDC152 (11743942_at) / RFU ECM1 (11717891_a_at) / Fold change /veh ECM1 (11717891_a_at) / RFU IL23R (11748794_a_at) / Fold change /veh IL23R (11748794_a_at) / RFU TNFAIP8L3 (11732012_x_at) / Fold change /veh TNFAIP8L3 (11732012_x_at) / RFU MBOAT4 (11741988_at) / Fold change /veh MBOAT4 (11741988_at) / RFU 11764193_at / Fold change /veh 11764193_at / RFU TMEM53 (11763286_at) / Fold change /veh TMEM53 (11763286_at) / RFU MAGEB2 (11727129_at) / Fold change /veh MAGEB2 (11727129_at) / RFU TMEM200A (11744735_a_at) / Fold change /veh TMEM200A (11744735_a_at) / RFU CCDC152 (11751479_a_at) / Fold change /veh CCDC152 (11751479_a_at) / RFU FAM211A (11726209_a_at) / Fold change /veh FAM211A (11726209_a_at) / RFU RGS16 (11746705_a_at) / Fold change /veh RGS16 (11746705_a_at) / RFU VCAN (11755009_s_at) / Fold change /veh VCAN (11755009_s_at) / RFU RHOB (11743442_s_at) / Fold change /veh RHOB (11743442_s_at) / RFU RGS16 (11720943_a_at) / Fold change /veh RGS16 (11720943_a_at) / RFU RGS16 (11720944_at) / Fold change /veh RGS16 (11720944_at) / RFU, VPS4B / Fold change vs veh, VPS4B / RFU, CREB1 / Fold change vs veh, CREB1 / RFU, DNAJC13 / Fold change vs veh, DNAJC13 / RFU, GNAQ / Fold change vs veh, GNAQ / RFU, CDK5R1 / Fold change vs veh, CDK5R1 / RFU, ZRANB3 / Fold change vs veh, ZRANB3 / RFU, CUL4A / Fold change vs veh, CUL4A / RFU, CCNY / Fold change vs veh, CCNY / RFU, UFL1 / Fold change vs veh, UFL1 / RFU, COG3 / Fold change vs veh, COG3 / RFU, DIAPH2 / Fold change vs veh, DIAPH2 / RFU, SKA2 / Fold change vs veh, SKA2 / RFU, AFF3 / Fold change vs veh, AFF3 / RFU, LMF1 / Fold change vs veh, LMF1 / RFU, IPO11 / Fold change vs veh, IPO11 / RFU, DFFB / Fold change vs veh, DFFB / RFU, FOXP1 / Fold change vs veh, FOXP1 / RFU, CARD8 / Fold change vs veh, CARD8 / RFU, STRN3 / Fold change vs veh, STRN3 / RFU, ADK / Fold change vs veh, ADK / RFU, RASSF2 / Fold change vs veh, RASSF2 / RFU, WIPF1 / Fold change vs veh, WIPF1 / RFU, LARP1B / Fold change vs veh, LARP1B / RFU, RASA1 / Fold change vs veh, RASA1 / RFU, RB1 / Fold change vs veh, RB1 / RFU, PPFIA1 / Fold change vs veh, PPFIA1 / RFU, MAT2A / Fold change vs veh, MAT2A / RFU, CCT5 / Fold change vs veh, CCT5 / RFU, WDR92 / Fold change vs veh, WDR92 / RFU, CUX1 / Fold change vs veh, CUX1 / RFU, TTC7A / Fold change vs veh, TTC7A / RFU, TMEM135 / Fold change vs veh, TMEM135 / RFU, DEPTOR / Fold change vs veh, DEPTOR / RFU, CPM / Fold change vs veh, CPM / RFU, DNAJB6 / Fold change vs veh, DNAJB6 / RFU, CACNA2D3 / Fold change vs veh, CACNA2D3 / RFU, DTX4 / Fold change vs veh, DTX4 / RFU, TFCP2 / Fold change vs veh, TFCP2 / RFU, GMCL1 /// GMCL1P1 / Fold change vs veh, GMCL1 /// GMCL1P1 / RFU, AEBP2 / Fold change vs veh, AEBP2 / RFU, SNHG1 /// SNORD22 /// SNORD25 /// SNORD26 /// SNORD27 /// SNORD28 /// SNORD29 /// SNORD31 / Fold change vs veh, SNHG1 /// SNORD22 /// SNORD25 /// SNORD26 /// SNORD27 /// SNORD28 /// SNORD29 /// SNORD31 / Fold change (Aza/veh), C12orf56 (ProbeSet 11735607_a_at) / Fold change (ACY-1035/veh), C12orf56 (ProbeSet 11735607_a_at) / Fold change (Aza/veh), FGFR1OP (ProbeSet 11751329_s_at) / Fold change (ACY-1035/veh), FGFR1OP (ProbeSet 11751329_s_at) / Fold change (Aza/veh), VPS36 (ProbeSet 11739960_a_at) / Fold change (ACY-1035/veh), VPS36 (ProbeSet 11739960_a_at) / RFU SYPL1 (11715823_x_at) / Fold change /veh SYPL1 (11715823_x_at) / RFU IGFBP7 (11715501_s_at) / Fold change /veh IGFBP7 (11715501_s_at) / RFU REEP3 (11722064_at) / Fold change /veh REEP3 (11722064_at) / RFU IGLL1 (11728026_x_at) / Fold change /veh IGLL1 (11728026_x_at): dose or concentration left out as unconfirmed
Details: ProbeSet 11730501_a_at; LIST D

Nc1ncn([C@@H]2O[C@H](CO)[C@@H](O)[C@H]2O)c(=O)n1 [azacitidine]
Fold change vs veh, CACNA2D3: 0.63
